This assay deals with T1, Full-length glucokinase (beta cell isoform) (Homo sapiens, UniProt P35557).
T1 construct: Full-length glucokinase (beta cell isoform) was His-tagged at N-terminus; His tag (N); made in house
T1 sequence (P35557 1-465): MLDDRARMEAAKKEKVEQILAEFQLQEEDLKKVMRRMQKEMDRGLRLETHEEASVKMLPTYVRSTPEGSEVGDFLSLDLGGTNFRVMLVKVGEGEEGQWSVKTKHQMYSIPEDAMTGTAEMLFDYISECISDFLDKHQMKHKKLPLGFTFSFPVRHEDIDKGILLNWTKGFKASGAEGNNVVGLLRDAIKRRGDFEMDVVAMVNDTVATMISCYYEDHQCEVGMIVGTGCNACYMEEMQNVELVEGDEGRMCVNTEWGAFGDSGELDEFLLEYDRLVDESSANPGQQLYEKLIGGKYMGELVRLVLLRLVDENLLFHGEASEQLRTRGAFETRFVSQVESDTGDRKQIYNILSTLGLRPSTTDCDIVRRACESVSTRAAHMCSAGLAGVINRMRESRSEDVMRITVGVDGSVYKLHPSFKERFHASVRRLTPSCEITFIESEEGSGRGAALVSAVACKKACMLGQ
Kind of assay: Glucokinase biochemical assay (PK/LDH-coupled, NADH depletion at 340 nm): % activation, EC50, % max activation. Conditions: 5 mM glucose; for activation at 10 µM: 10 uM compound, % Activation=(Va/Vo−1)×100, read-out: % Activation at 10 uM; for EC50: GK activation, read-out: EC50; for Emax: fitted maximum activation, read-out: % Max Activation. Here is the method: Full-length glucokinase (beta cell isoform) was His-tagged at N-terminus and purified by a Ni column followed by size exclusion chromatography. Glucose was obtained from Calbiochem, and other reagents were from Sigma.
All assays were performed in a Corning 96-well plate using Spectramax PLUS spectrophotometer (Molecular Devices) at room temperature. The final assay volume was 100 uL. The buffer conditions used in this assay were as follows: 50 mM HEPES, 5 mM glucose, 1 mM ATP, 2 mM MgCl2, 0.7mM NADH, 2 mM DTT, 1 Unit/mL PK/LDH, 0.2 mM phosphoenolpyruvate, 25 mM KCl. Tested compound in DMSO solution was added to the buffer and mixed well by a plate shaker for 1 minute. The final concentration of DMSO introduced into the assay was 1%.
Glucokinase was added to the buffer mixture to initiate the reaction in the presence and absence of compound. Reaction was monitored by absorbance at 340nm due to the depletion of NADH. The initial reaction velocity was measured by the slope of a linear time course of 200-900 sec.
The percentage of activation was calculated by the following equation: % Activation=(Va/Vo−1)×100;
wherein each of Va and Vo is defined as the initial reaction velocity in the presence and absence of the tested compound, respectively.
The GK activities were measured as a function of compound concentrations.

22 molecules from US8119624B2, “Fused phenyl amido heterocyclic compounds” (Pfizer Inc., priority 2006, dated 2012) can be followed below.

Consider `CC1Cc2c(cc(Oc3ccc(S(C)(=O)=O)cc3)cc2C(=O)Nc2ccccn2)O1` (stereo not drawn) [Example 1, 6-(4-Methanesulfonyl-phenoxy)-2-methyl-2,3-dihydrobenzofuran-4-carboxylic acid pyridin-2-ylamide], for which the activation at 10 µM came to 101%, the EC50 turned out to be 8700 nM and the Emax amounted to 144%.
For `Cc1ccc(NC(=O)c2cc(Oc3ccc(S(C)(=O)=O)cc3)cc3c2CC(C)O3)nc1` (stereo not drawn) [Example 2, 6-(4-Methanesulfonyl-phenoxy)-2-methyl-2,3-dihydrobenzofuran-4-carboxylic acid(5-methyl-pyridin-2-yl)-amide], the activation at 10 µM stood at 113%, the EC50 stood at 5300 nM and the Emax worked out at 152%.
On the same counts, the results for `Cc1ccc(NC(=O)c2cc(Oc3ccc(S(C)(=O)=O)cc3)c3c(c2)OC(C)(C)C3)nc1` [Example 3, 4-(4-Methanesulfonyl-phenoxy)-2,2-dimethyl-2,3-dihydrobenzofuran-6-carboxylic acid(5-methyl-pyridin-2-yl)-amide] are 145%, 348 nM and 140%.
`Cc1cc2cc(Oc3ccc(S(C)(=O)=O)cc3)cc(C(=O)Nc3ccn(C)n3)c2o1` [Example 4, 5-(4-Methanesulfonyl-phenoxy)-2-methyl-benzofuran-7-carboxylic acid(1-methyl-1H-pyrazol-3-yl)-amide]: the activation at 10 µM was determined as 14.6%.
The same measure, in the same setting: to `Cc1cc2cc(Oc3ccc(S(C)(=O)=O)cc3)cc(C(=O)Nc3ccccn3)c2o1` [Example 5, 5-(4-Methanesulfonyl-phenoxy)-2-methyl-benzofuran-7-carboxylic acid pyridin-2-ylamide] belongs -6.3%.
Consider `Cc1ccc(NC(=O)c2cc(Oc3ccc(S(C)(=O)=O)cc3)cc3c2CCO3)nc1` [Example 6, 6-(4-Methanesulfonyl-phenoxy)-2,3-dihydrobenzofuran-4-carboxylic acid(5-methyl-pyridin-2-yl)-amide], for which the activation at 10 µM came to 87.6%, the 50% effective concentration (EC50) was found to be 9600 nM and the Emax came to 123%.
Consider `Cc1ccc(NC(=O)c2cc(Oc3ccc(S(C)(=O)=O)cc3)cc3occc23)nc1` [Example 7, 6-(4-Methanesulfonyl-phenoxy)-benzofuran-4-carboxylic acid(5-methyl-pyridin-2-yl)-amide], for which the activation at 10 µM turned out to be 99.7%, the EC50 was found to be 3700 nM and the Emax came to 129%.
`Cc1ccc(NC(=O)c2cc3c(c(Oc4ccc(S(C)(=O)=O)cc4)c2)CCO3)nc1` [Example 8, 4-(4-Methanesulfonyl-phenoxy)-2,3-dihydro-benzofuran-6-carboxylic acid(5-methyl-pyridin-2-yl)-amide]: the activation at 10 µM stood at 127%, the EC50 was 2800 nM and the Emax was found to be 100%.
On the same counts, the results for `Cc1ccc(NC(=O)c2cc(Oc3ccc(S(C)(=O)=O)cc3)c3ccoc3c2)nc1` [Example 9, 4-(4-Methanesulfonyl-phenoxy)-benzofuran-6-carboxylic acid(5-methyl-pyridin-2-yl)-amide] are 72.7%, 3080 nM and 94.7%.
The corresponding values for `Cc1ccc(NC(=O)c2cc(Oc3ccc(S(C)(=O)=O)cc3)c3c(c2)OC(C)C3)nc1` (stereo not drawn) [Example 10, 4-(4-Methanesulfonyl-phenoxy)-2-methyl-2,3-dihydro-benzofuran-6-carboxylic acid(5-methyl-pyridin-2-yl)-amide] are 98.7%, 1100 nM and 122%.
As to `CC1Cc2c(Oc3ccc(S(C)(=O)=O)cc3)cc(C(=O)Nc3ccn(C)n3)cc2O1` (stereo not drawn) [Example 11, 4-(4-Methanesulfonyl-phenoxy)-2-methyl-2,3-dihydro-benzofuran-6-carboxylic acid(1-methyl-1H-pyrazol-3-yl)-amide], the activation at 10 µM was 158%, the EC50 was found to be 2000 nM and the Emax stood at 177%.
For `CC(C)COc1cc(C(=O)Nc2ccc(C(=O)O)cn2)cc2c1CC(C)(C)O2` [Example 14, 6-[(4-Isobutoxy-2,2-dimethyl-2,3-dihydro-benzofuran-6-carbonyl)-amino]-nicotinic acid], the activation at 10 µM is 167%, the EC50 was determined as 1300 nM and the Emax is 115%.
`CC1(C)Cc2c(Oc3ccc(S(C)(=O)=O)cc3)cc(C(=O)Nc3ccc(C(N)=O)cn3)cc2O1` [Example 15, 6-{[4-(4-Methanesulfonyl-phenoxy)-2,2-dimethyl-2,3-dihydro-benzofuran-6-carbonyl]-amino}-nicotinamide]: the activation at 10 µM was 4.3%.
As to `Cn1ccc(NC(=O)c2cc(Oc3ccc(S(C)(=O)=O)cc3)c3c(c2)OC(C)(C)C3)n1` [Example 16, 4-(4-Methanesulfonyl-phenoxy)-2,2-dimethyl-2,3-dihydro-benzofuran-6-carbo-xylic acid(1-methyl-1H-pyrazol-3-yl)-amide], the activation at 10 µM turned out to be 213%, the EC50 worked out at 506 nM and the Emax came to 192%.
On the same counts, the results for `CC1(C)Cc2c(Oc3ccc(S(C)(=O)=O)cc3)cc(C(=O)Nc3cnccn3)cc2O1` [Example 17, 4-(4-Methanesulfonyl-phenoxy)-2,2-dimethyl-2,3-dihydrobenzofuran-6-carboxy-lic acid pyrazin-2-ylamide] are 161%, 510 nM and 165%.
As for `COc1ccnc(NC(=O)c2cc(Oc3ccc(S(C)(=O)=O)cc3)c3c(c2)OC(C)(C)C3)c1` [Example 18, 4-(4-Methanesulfonyl-phenoxy)-2,2-dimethyl-2,3-dihydro-benzofuran-6-carbo-xylic acid(4-methoxy-pyridin-2-yl)-amide], the activation at 10 µM was 105%, the EC50 is 950 nM and the Emax stood at 114%.
On the same counts, the results for `CC1(C)Cc2c(Oc3ccc(S(C)(=O)=O)cc3)cc(C(=O)Nc3ccccn3)cc2O1` [Example 19, 4-(4-Methanesulfonyl-phenoxy)-2,2-dimethyl-2,3-dihydro-benzofuran-6-carbo-xylic acid pyridin-2-ylamide] are 139%, 370 nM and 156%.
On the same counts, the results for `Cn1ncc(NC(=O)c2cc(Oc3ccc(S(C)(=O)=O)cc3)c3c(c2)OC(C)(C)C3)n1` [Example 20, 4-(4-Methanesulfonyl-phenoxy)-2,2-dimethyl-2,3-dihydro-benzofuran-6-carbo-xylic acid(2-methyl-2H-[1,2,3]triazol-4-yl)-amide] are 230%, 314 nM and 231%.
For the molecule `Cc1ccc(NC(=O)c2cc(Oc3ccc(S(C)(=O)=O)cc3)c3c(c2)OC(C)(C)C3)nn1` [Example 21, 4-(4-Methanesulfonyl-phenoxy)-2,2-dimethyl-2,3-dihydro-benzofuran-6-carboxylic acid (6-methyl-pyridazin-3-yl)-amide], the activation at 10 µM turned out to be 97.9%, the concentration giving a half-maximal response (EC50) came to 3900 nM and the Emax stood at 127%.
In the case of `CC1(C)Cc2c(Oc3ccc(S(C)(=O)=O)cc3)cc(C(=O)Nc3ccc(CO)cn3)cc2O1` [Example 22, 4-(4-Methanesulfonyl-phenoxy)-2,2-dimethyl-2,3-dihydro-benzofuran-6-carboxylic acid (5-hydroxymethyl-pyridin-2-yl)-amide], the activation at 10 µM was 118%, the EC50 was found to be 290 nM and the Emax came out at 117%.
On the same counts, the results for `Cc1ccnc(NC(=O)c2cc(Oc3ccc(S(C)(=O)=O)cc3)c3c(c2)OC(C)(C)C3)c1` [Example 23, 4-(4-Methanesulfonyl-phenoxy)-2,2-dimethyl-2,3-dihydro-benzofuran-6-carboxylic acid(4-methyl-pyridin-2-yl)-amide] are 46.1%, 1400 nM and 70%.
The corresponding values for `Cc1nnc(NC(=O)c2cc(Oc3ccc(S(C)(=O)=O)cc3)c3c(c2)OC(C)(C)C3)s1` [Example 24, 4-(4-Methanesulfonyl-phenoxy)-2,2-dimethyl-2,3-dihydro-benzofuran-6-carboxylic acid(5-methyl-[1,3,4]thiadiazol-2-yl)-amide] are 121%, 1490 nM and 140%.
